Here are results for seven molecules from article PMC11323006, “Designing Coiled Coils for Heterochiral Complexation to Enhance Binding and Enzymatic Stability” (Biomacromolecules, 2024).

The conditions of series [1]: cited from earlier work. The source says:
For example, 1:1 heterochir ...

In series [2] the target is Proteinase K (Parengyodontium album, UniProt P06873). In words: in vitro. The note with it: Proteinase K 5 μg/mL. The procedure:
(§1) Degradation was monitored by HPLC. Solutions of individual coiled coils were prepared at 200 μM in 1× PBS and pH corrected to 7.40 ± 0.05 using 1–15 μL of 1 M NaOH. A stock solution of Proteinase K enzyme was prepared at 0.5 mg/mL. For each pair of peptides, 1.5 mL of each 200 μM solution was mixed, then 30 μL of 0.5 mg/mL Proteinase K was added to the 3 mL total mixed solution to obtain a final concentration of 5 μg/mL Proteinase K. Each degradation solution was stirred at 250 rpm for the duration of the experiment. For each time point, a 1 mL aliquot of degradation solution was added to an HPLC vial, a 100 μL injection was performed on HPLC, and the remaining 900 μL was returned to the bulk degradation solution. To normalize for slight shifts in elution time due to changing solvent or environmental conditions, a MATLAB script (included in SI) was used to align all K4^7 (for heptad degradation) or K3^11 (for hendecad degradation) peaks to the same elution time as the elution at t = 0 h.
(§2) Solutions of K4^7 and E4^7 (200 μM in 1× PBS at pH 7.4) were blended as homochiral (L-K4^7/L-E4^7) or heterochiral (D-K4^7/L-E4^7) mixtures. These blends were then incubated with 5 μg/mL Proteinase K, an enzyme known for its broad-spectrum activity and expected to cleave after the I, A, L, and E residues of these peptides.[40] Immediately after adding Proteinase K, as well as after 1, 3, 6, 12, and 24 h incubations, we used high performance liquid chromatography (HPLC) to monitor the degradation of the coiled coils.
(§3) We incubated solutions of homochiral (L-K3^11/L-E3^11) or heterochiral (D-K3^11/L-E3^11) hendecad coiled coils with 5 μg/mL Proteinase K as we did for the heptad coiled coils (200 μM each in 1× PBS at pH 7.4).

For series [3], the system named is Proteinase K. Briefly: in vitro. The note with it: isolated enzyme proteinase k. The procedure:
as §1, §2, §3

Setting [4] is: pH 7.4, percent intact by peak area (Normalized Area).

Square brackets hold non-standard residues; d marks the D form. Peptide text beside a SMILES is read from it. Some results are limits rather than exact numbers.

Sequence of Proteinase K (Parengyodontium album, UniProt P06873) (P06873 106-384): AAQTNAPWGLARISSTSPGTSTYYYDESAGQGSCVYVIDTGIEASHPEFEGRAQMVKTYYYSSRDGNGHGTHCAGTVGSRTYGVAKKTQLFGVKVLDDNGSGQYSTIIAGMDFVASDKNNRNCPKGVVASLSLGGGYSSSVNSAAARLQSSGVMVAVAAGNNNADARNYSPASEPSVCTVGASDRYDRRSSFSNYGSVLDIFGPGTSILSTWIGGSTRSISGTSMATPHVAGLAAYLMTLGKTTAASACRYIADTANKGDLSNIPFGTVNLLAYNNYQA

(PPG)10: in series [1] (heterochiral mixtures of triple helices), the “solubility of heterochiral mixtures” value was “precipitate”. For the same molecule, the “solubility of homochiral triple helices” value in series [1] (homochiral triple helices) is given as “soluble”.
As a reminder, the amount remaining is what is left of the initial amount, in per cent. Low readings indicate more turnover, high ones less turnover. For `CC[C@H](C)[C@H](NC(=O)[C@H](CCCCN)NC(=O)[C@H](C)NC(=O)[C@H](C)NC(=O)[C@@H](NC(=O)[C@H](CCCCN)NC(=O)[C@H](CCC(=O)O)NC(=O)[C@H](CCCCN)NC(=O)[C@H](CC(C)C)NC(=O)[C@H](C)NC(=O)[C@H](C)NC(=O)[C@@H](NC(=O)[C@H](CCCCN)NC(=O)[C@H](C)NC(=O)[C@H](C)NC(=O)[C@@H](NC(=O)[C@H](CCCCN)NC(=O)[C@H](CCC(=O)O)NC(=O)[C@H](CCCCN)NC(=O)[C@H](CC(C)C)NC(=O)[C@H](C)NC(=O)[C@H](C)NC(=O)[C@@H](NC(=O)[C@@H](N)CCCCN)[C@@H](C)CC)[C@@H](C)CC)[C@@H](C)CC)[C@@H](C)CC)C(=O)N[C@@H](C)C(=O)N[C@@H](C)C(=O)N[C@@H](CC(C)C)C(=O)N[C@@H](CCCCN)C(=O)N[C@@H](CCC(=O)O)C(=O)N[C@@H](CCCCN)C(=O)N[C@H](C(=O)N[C@@H](C)C(=O)N[C@@H](C)C(N)=O)[C@@H](C)CC` [L-K3^11] (H-KIAALKEKIAAKIAALKEKIAAKIAALKEKIAA-NH2), the “time to complete degradation” value on Proteinase K [2] (homochiral blend L-K3^11:L-E3^11, 1× PBS pH 7.4, HPLC) was “under 6 h”. Also, in the series with Proteinase K [3] (pH 7.4), the amount remaining at 1 h, 100 μM stood at 77%; the share remaining at 3 h, 100 μM came out at 11%; the share remaining at 6 h, 100 μM was determined as 0%; the share remaining at 12 h, 100 μM turned out to be 0%. This molecule also had a fraction remaining at 30 h, 100 μM in the series with Proteinase K [3] (pH 7.4) of 0%.
Regarding `CC[C@H](C)[C@H](NC(=O)[C@H](CCC(=O)O)NC(=O)[C@H](CCCCN)NC(=O)[C@H](CCC(=O)O)NC(=O)[C@H](CC(C)C)NC(=O)[C@H](C)NC(=O)[C@H](C)NC(=O)[C@@H](NC(=O)[C@H](CCC(=O)O)NC(=O)[C@H](CCCCN)NC(=O)[C@H](CCC(=O)O)NC(=O)[C@H](CC(C)C)NC(=O)[C@H](C)NC(=O)[C@H](C)NC(=O)[C@@H](NC(=O)[C@H](CCC(=O)O)NC(=O)[C@H](CCCCN)NC(=O)[C@H](CCC(=O)O)NC(=O)[C@H](CC(C)C)NC(=O)[C@H](C)NC(=O)[C@H](C)NC(=O)[C@@H](NC(=O)[C@@H](N)CCC(=O)O)[C@@H](C)CC)[C@@H](C)CC)[C@@H](C)CC)C(=O)N[C@@H](C)C(=O)N[C@@H](C)C(=O)N[C@@H](CC(C)C)C(=O)N[C@@H](CCC(=O)O)C(=O)N[C@@H](CCCCN)C(N)=O` [L-E4^7] (H-EIAALEKEIAALEKEIAALEKEIAALEK-NH2), the “time within which the intact peak disappears completely” value on Proteinase K [2] (heterochiral blend D-K4^7:L-E4^7, 1× PBS pH 7.4, HPLC peak at 6.9 min) is at most 12 h. Also, in the series with Proteinase K [3] (pH 7.4), the share remaining at 3 h, 100 μM amounted to 71%; the fraction remaining at 6 h, 100 μM was 12%; the amount remaining at 12 h, 100 μM worked out at 1%; the fraction remaining at 24 h, 100 μM is 0%.
In the case of `CC[C@@H](C)[C@@H](NC(=O)[C@H](N)CCCCN)C(=O)N[C@H](C)C(=O)N[C@H](C)C(=O)N[C@H](CC(C)C)C(=O)N[C@H](CCCCN)C(=O)N[C@H](CCC(=O)O)C(=O)N[C@H](CCCCN)C(=O)N[C@@H](C(=O)N[C@H](C)C(=O)N[C@H](C)C(=O)N[C@H](CC(C)C)C(=O)N[C@H](CCCCN)C(=O)N[C@H](CCC(=O)O)C(=O)N[C@H](CCCCN)C(=O)N[C@@H](C(=O)N[C@H](C)C(=O)N[C@H](C)C(=O)N[C@H](CC(C)C)C(=O)N[C@H](CCCCN)C(=O)N[C@H](CCC(=O)O)C(=O)N[C@H](CCCCN)C(=O)N[C@@H](C(=O)N[C@H](C)C(=O)N[C@H](C)C(=O)N[C@H](CC(C)C)C(=O)N[C@H](CCCCN)C(=O)N[C@H](CCC(=O)O)C(N)=O)[C@H](C)CC)[C@H](C)CC)[C@H](C)CC` [D-K4^7] (H-[dK][dI][dA][dA][dL][dK][dE][dK][dI][dA][dA][dL][dK][dE][dK][dI][dA][dA][dL][dK][dE][dK][dI][dA][dA][dL][dK][dE]-NH2), the “degradation in the heterochiral blend (in words)” value on Proteinase K [2] (heterochiral blend D-K4^7:L-E4^7, 1× PBS pH 7.4, HPLC, up to 24 h) is listed as “little to no degradation”. In the series on Proteinase K [3] (setting [4]), this molecule came in with a fraction remaining at 1 h, 100 μM of 97% and a fraction remaining at 3 h, 100 μM of 97%.
In the case of `CC[C@H](C)[C@H](NC(=O)[C@H](CCC(=O)O)NC(=O)[C@H](C)NC(=O)[C@H](C)NC(=O)[C@@H](NC(=O)[C@H](CCC(=O)O)NC(=O)[C@H](CCCCN)NC(=O)[C@H](CCC(=O)O)NC(=O)[C@H](CC(C)C)NC(=O)[C@H](C)NC(=O)[C@H](C)NC(=O)[C@@H](NC(=O)[C@H](CCC(=O)O)NC(=O)[C@H](C)NC(=O)[C@H](C)NC(=O)[C@@H](NC(=O)[C@H](CCC(=O)O)NC(=O)[C@H](CCCCN)NC(=O)[C@H](CCC(=O)O)NC(=O)[C@H](CC(C)C)NC(=O)[C@H](C)NC(=O)[C@H](C)NC(=O)[C@@H](NC(=O)[C@@H](N)CCC(=O)O)[C@@H](C)CC)[C@@H](C)CC)[C@@H](C)CC)[C@@H](C)CC)C(=O)N[C@@H](C)C(=O)N[C@@H](C)C(=O)N[C@@H](CC(C)C)C(=O)N[C@@H](CCC(=O)O)C(=O)N[C@@H](CCCCN)C(=O)N[C@@H](CCC(=O)O)C(=O)N[C@H](C(=O)N[C@@H](C)C(=O)N[C@@H](C)C(N)=O)[C@@H](C)CC` [L-E3^11] (H-EIAALEKEIAAEIAALEKEIAAEIAALEKEIAA-NH2), in the series with Proteinase K [3] (setting [4]), the share remaining at 3 h, 100 μM was found to be 7%; the fraction remaining at 6 h, 100 μM worked out at 0%; the amount remaining at 12 h, 100 μM was found to be 0%. Besides, the fraction remaining at 168 h, 100 μM with Proteinase K [3] (pH 7.4, percent of the peptide remaining) worked out at 23%.
In the series with Proteinase K [3] (setting [4]), `CC[C@H](C)[C@H](NC(=O)[C@H](CCCCN)NC(=O)[C@H](CCC(=O)O)NC(=O)[C@H](CCCCN)NC(=O)[C@H](CC(C)C)NC(=O)[C@H](C)NC(=O)[C@H](C)NC(=O)[C@@H](NC(=O)[C@H](CCCCN)NC(=O)[C@H](CCC(=O)O)NC(=O)[C@H](CCCCN)NC(=O)[C@H](CC(C)C)NC(=O)[C@H](C)NC(=O)[C@H](C)NC(=O)[C@@H](NC(=O)[C@H](CCCCN)NC(=O)[C@H](CCC(=O)O)NC(=O)[C@H](CCCCN)NC(=O)[C@H](CC(C)C)NC(=O)[C@H](C)NC(=O)[C@H](C)NC(=O)[C@@H](NC(=O)[C@@H](N)CCCCN)[C@@H](C)CC)[C@@H](C)CC)[C@@H](C)CC)C(=O)N[C@@H](C)C(=O)N[C@@H](C)C(=O)N[C@@H](CC(C)C)C(=O)N[C@@H](CCCCN)C(=O)N[C@@H](CCC(=O)O)C(N)=O` [L-K4^7] (H-KIAALKEKIAALKEKIAALKEKIAALKE-NH2) showed an amount remaining at 3 h, 100 μM of 74% and a fraction remaining at 24 h, 100 μM of 0%.
`CC[C@@H](C)[C@@H](NC(=O)[C@H](N)CCCCN)C(=O)N[C@H](C)C(=O)N[C@H](C)C(=O)N[C@H](CC(C)C)C(=O)N[C@H](CCCCN)C(=O)N[C@H](CCC(=O)O)C(=O)N[C@H](CCCCN)C(=O)N[C@@H](C(=O)N[C@H](C)C(=O)N[C@H](C)C(=O)N[C@H](CCCCN)C(=O)N[C@@H](C(=O)N[C@H](C)C(=O)N[C@H](C)C(=O)N[C@H](CC(C)C)C(=O)N[C@H](CCCCN)C(=O)N[C@H](CCC(=O)O)C(=O)N[C@H](CCCCN)C(=O)N[C@@H](C(=O)N[C@H](C)C(=O)N[C@H](C)C(=O)N[C@H](CCCCN)C(=O)N[C@@H](C(=O)N[C@H](C)C(=O)N[C@H](C)C(=O)N[C@H](CC(C)C)C(=O)N[C@H](CCCCN)C(=O)N[C@H](CCC(=O)O)C(=O)N[C@H](CCCCN)C(=O)N[C@@H](C(=O)N[C@H](C)C(=O)N[C@H](C)C(N)=O)[C@H](C)CC)[C@H](C)CC)[C@H](C)CC)[C@H](C)CC)[C@H](C)CC` [D-K3^11] (H-[dK][dI][dA][dA][dL][dK][dE][dK][dI][dA][dA][dK][dI][dA][dA][dL][dK][dE][dK][dI][dA][dA][dK][dI][dA][dA][dL][dK][dE][dK][dI][dA][dA]-NH2): the “stability in the heterochiral complex (in words)” value on Proteinase K [2] (heterochiral blend D-K3^11:L-E3^11, 1× PBS pH 7.4, HPLC, 30 h incubation) was “remains largely stable”.
